Several values for one entry are separate records, joined by “and”; a condition that tells them apart may be missing. Equal values may be shown once.
Assays:
[1] = system: rabbit heart, ischemia/reperfusion injury; assay: In situ rabbit model of myocardial infarction (30 min coronary occlusion, 180 min reperfusion), infarct size by TTC staining; assay type: in vivo; conditions: for reduction of infarct size vs saline control: 0.7 mg/kg IV
[2] = system: cardiac myocytes from adult mice; assay: Simulated ischemia/reoxygenation in isolated cardiac myocytes (trypan blue, TUNEL); assay type: cell-based; conditions: 10 μM, 40 min simulated ischemia
Procedure: The ability of sildenafil to confer protection against necrosis and apoptosis in cardiac myocytes was tested. Freshly isolated myocytes from adult mice were exposed to simulated ischemia with or without sildenafil (10 μM) for 40 minutes followed by reoxygenation for 60 minutes. The ischemic buffer contained (in mM): 118 NaCl, 24 NaHCO3, 1.0 NaH2PO4, 2.5 CaCl2-2H2O, 1.2 MgCl2, 20 sodium lactate, 16 KCl, 10 2-deoxyglucose (pH adjusted to 6.2). At the end of this protocol, necrotic cell death was evaluated by uptake of trypan blue using a phase contrast microscope. To determine apoptosis, the myocytes were reoxygenated for an extended period of 18 hrs after incubating them in the ischemic buffer for 40 minutes. Apoptosis was determined using the terminal deoxynucleotide nick-end labeling (TUNEL) assay which detects cells undergoing programmed cell death due to DNA fragmentation.

[3] = system: eNOS; assay: Cardiac eNOS mRNA (RT-PCR) and protein (Western blot) expression after treatment; assay type: in vivo, mouse; conditions: 0.7 mg/kg IP
Procedure: Adult male outbred ICR mice were supplied by Harlan Inc (Indianapolis, Ind.). Viagra pills (Pfizer Inc) were ground into powder and dissolved in saline. The drug solution was filtered (0.45-μm pore size) before intraperitoneal injection. 1400W, an iNOS inhibitor, was obtained from Alexis. We used an isolated perfused mouse heart model subjected to 20 minutes of global ischemia and 30 minutes of reperfusion (Langendorff mode). Myocardial I-R injury was assessed by measuring infarct size, contractile function, and coronary flow as described previously (Xi, 1999). Twenty-eight mice were randomized into the following 4 groups: (n=6 to 9 per group): (1) saline (0.15 mL IP), (2) sildenafil (0.7 mg/kg IP, equivalent to 50 mg Viagra pill used for patients with erectile dysfunction, given 24 hours before I-R), (3) sildenafil+1400W (10 mg/kg IP, 14 given 30 minutes before I-R), and (4) saline+1400W. Measurement of NOS Isoforms Mice were treated with sildenafil (0.7 mg/kg IP), and their hearts were removed at 15, 30, and 45 minutes and 1, 2, 3, 4, and 24 hours after injection (n=3 per group). […] The target bands were identified on the basis of their specific size using DNA standards. iNOS and eNOS proteins were measured by Western blots as described previously. […] The mRNA and protein expression were quantified by scanning each of the RT-PCR or Western blot band using a densitometer (Bioquant 98). […]

[4] = system: nNOS, iNOS and eNOS knockout mouse hearts; assay: Delayed cardioprotection in NOS gene-knockout mice, isolated perfused heart, 30 min global ischemia and 60 min reperfusion; assay type: in vivo; conditions: iNOS-KO mice
[5] = system: neonatal mouse cardiac myocytes; assay type: cell-based; conditions: DOX 0.5–5 μM with 1 μM sildenafil
Procedure: Neonatal mouse myocytes in culture are incubated with 0.5–5 μM of DOX (in the presence or absence of 1 μM sildenafil) for 18 hours. The cells are then incubated with drug free growth medium for an additional 24 hours. Cytotoxicity of DOX is quantitatively assessed by measuring the percentage of cells killed and the amount of creatine kinase (CK) released into the media. In addition, a trypan blue exclusion assay and propidium iodide nuclear stain are used to quantitate cell death. Since DOX induces cardiomyopathy through the release of reactive oxygen species, lipid peroxidation in the cells is also measured as an index of oxidative damage.
Neonatal mouse cardiac myocyte cultures are used for membrane potential studies. Cells in culture are treated with 0.5–5 μM of DOX (in the presence or absence of 1 μM sildenafil) for 18 hours. The cells are then incubated with drug free growth medium for an additional 24 hours. Additional groups are included where the cells are treated with a mitoKATP channel blocker (5-hydroxydecanoate, 100 μM), surface channel blocker (HMR1098, 30 μM) or cyclosporine, a mitochondrial membrane potential (Ψm) blocker (5 μM). For assessment of apoptosis, the TUNEL assay is used, which is an accurate method for distinguishing apoptosis from necrosis by specifically detecting DNA cleavage and chromatin condensation characteristic of apoptosis. Additionally, positive TUNEL staining directly correlates with the more typical biochemical and morphological aspects of apoptosis. Since an understanding of cell morphology is critical for data interpretation, apoptotic morphology is simultaneously assessed according to accepted scientific criteria previously described (Nor-Avi, 1999). The in situ staining of DNA strand breaks detected by the TUNEL assay along with subsequent morphological observation via epifluorescent, confocal, and electron microscopy, provides significant and reliable data regarding the identification of apoptotic cells, even in tissue samples where apoptosis represents a small segment of the population (Manning 1994). In addition, several other key indicators of apoptosis including annexin-V, cytosolic cytochrome c, caspase 3, caspase 8, as well as poly (ADP-ribose) polymerase cleavage in these groups, are measured. Mitochondrial membrane potential (Ψm) using a fluorescent indicator probe, JC-1 (Molecular Probes, Eugene, Oreg.) is measured.

[6] = system: iNOS; assay: Cardiac iNOS mRNA (RT-PCR) and protein (Western blot) expression after treatment; assay type: in vivo, mouse; conditions: 0.7 mg/kg IP
Procedure: Adult male outbred ICR mice were supplied by Harlan Inc (Indianapolis, Ind.). Viagra pills (Pfizer Inc) were ground into powder and dissolved in saline. The drug solution was filtered (0.45-μm pore size) before intraperitoneal injection. 1400W, an iNOS inhibitor, was obtained from Alexis. We used an isolated perfused mouse heart model subjected to 20 minutes of global ischemia and 30 minutes of reperfusion (Langendorff mode). Myocardial I-R injury was assessed by measuring infarct size, contractile function, and coronary flow as described previously (Xi, 1999). Twenty-eight mice were randomized into the following 4 groups: (n=6 to 9 per group): (1) saline (0.15 mL IP), (2) sildenafil (0.7 mg/kg IP, equivalent to 50 mg Viagra pill used for patients with erectile dysfunction, given 24 hours before I-R), (3) sildenafil+1400W (10 mg/kg IP, 14 given 30 minutes before I-R), and (4) saline+1400W. Measurement of NOS Isoforms Mice were treated with sildenafil (0.7 mg/kg IP), and their hearts were removed at 15, 30, and 45 minutes and 1, 2, 3, 4, and 24 hours after injection (n=3 per group). Three nontreated hearts were used as controls. Tissue samples were ground under liquid nitrogen and homogenized with TRI Reagent (Molecular Research Center) for extracting total RNA, which was reverse-transcribed into cDNA at 50° C. for 30 minutes using a OneStep reverse transcription (RT)-polymerase chain reaction (PCR) kit from Qiagen. The oligonucleotide primers were synthesized on the basis of published sequences for murine iNOS, eNOS, and GAPDH15 (Integrated DNA Technology). The RT-PCR products were electrophoresed on 1.5% Trisacetate-EDTA agarose gel. The target bands were identified on the basis of their specific size using DNA standards. iNOS and eNOS proteins were measured by Western blots as described previously. […] The mRNA and protein expression were quantified by scanning each of the RT-PCR or Western blot band using a densitometer (Bioquant 98). […]

In the case of `CCCc1nn(C)c2c(=O)[nH]c(-c3cc(S(=O)(=O)N4CCN(C)CC4)ccc3OCC)nc12` [sildenafil], the infarct size ([1]; 0.1 mg/kg, 30 minutes prior to ischemia) was 17.05%, the infarct size ([1]; 0.2 mg/kg, 30 minutes prior to ischemia) was 13.53±1.24 and the “infarct limiting effect at lower doses (0.2 and 0.1 mg/kg) versus the 0.7 mg/kg dose” value ([1]; 30 minutes prior to ischemia) was “comparable”. For the same compound, the “reduction of infarct size vs saline control” value ([1]; acute phase, 0.7 mg/kg) was 68% and 67%, the infarct size ([1]; acute phase: sildenafil 0.7 mg/kg IV 30 min prior to ischemia/reperfusion) was 10.8±0.9 % of risk area and the “reduction of infarct size vs saline control” value ([1]; delayed phase) was 41%. For the same compound, the infarct size ([1]; delayed phase: sildenafil 0.7 mg/kg IV 24 hrs prior to ischemia/reperfusion) was 19.9±2.0 % of risk area, the infarct size ([1]; total dose 0.7 mg/kg infused from 25 min of ischemia into reperfusion for 1 hr, 0.7 mg/kg) was 18.37±2.42 and the infarct size ([1]; total dose 0.7 mg/kg infused from 25 min of ischemia into reperfusion for 1 hr, listed as Sildenafil, 0.7 mg/kg) was “significant reduction in the infarct size”. The “necrotic cell death by trypan blue uptake” value ([2]; 60 min reoxygenation) was “significantly more blue (i.e. viable) cells”, the “apoptosis by TUNEL staining” value ([2]; 18 hrs reoxygenation) was “rescues myocytes against apoptotic cell death” and the “eNOS mRNA and protein expression” value [3] was “increase”. For the same compound, the “time of peak eNOS mRNA level” value [3] was 45 min, the delayed cardioprotection [4] was “absent” and the “effect on DOX-induced apoptosis indicators” value [5] was “aborted”. The “effect on DOX-induced parameters of injury (CK release, trypan blue uptake, lipid hydroperoxides)” value [5] was “reversed”, the “iNOS mRNA and protein expression” value [6] was “increase” and the “magnitude of increase, iNOS compared with eNOS” value [6] was “much higher for iNOS”. For the same compound, the “time of peak iNOS mRNA level” value [6] was 2 h.

— patent publication US7091207B2, “Method of treating myocardial infarction with PDE-5 inhibitors” (Virginia Commonwealth University, priority 2002, dated 2006)
